Key:
[1] = Inhibitory activity of against carboxypeptidase A (CPA)
[2] = Partition ratio (Kcat/Kinact) was calculated
[3] = Kinetic constant against carboxypeptidase A (CPA)
[4] = biological target: T1, Carboxypeptidase A1 (Homo sapiens) (UniProt P15085); assay: Inactivation potency of compound against carboxypeptidase A (CPA)
T1 sequence (whole entry): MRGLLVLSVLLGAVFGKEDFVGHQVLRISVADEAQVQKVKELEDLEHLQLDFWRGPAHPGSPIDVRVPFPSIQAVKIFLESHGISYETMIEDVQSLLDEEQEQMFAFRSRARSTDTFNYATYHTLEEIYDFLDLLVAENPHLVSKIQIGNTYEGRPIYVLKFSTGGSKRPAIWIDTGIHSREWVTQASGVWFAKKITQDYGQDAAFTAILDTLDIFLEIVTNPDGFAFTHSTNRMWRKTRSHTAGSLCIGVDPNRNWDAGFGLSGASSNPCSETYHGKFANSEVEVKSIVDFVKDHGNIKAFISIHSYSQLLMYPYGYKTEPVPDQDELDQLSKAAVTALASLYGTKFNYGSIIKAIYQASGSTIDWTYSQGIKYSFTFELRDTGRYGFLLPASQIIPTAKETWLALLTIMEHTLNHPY

| Ki [1] [mM] | Ratio [2] | K inact [3] [min⁻¹] | K inact/Ki [4] [M⁻¹ s⁻¹] | Structure (SMILES) |
| --- | --- | --- | --- | --- |
| 0.9 | 120 | 0.075 | 1.39 | O=C1N[C@H]([C@H](Cc2ccccc2)C(=O)O)CO1 |
| 1.65 | 94 | 0.115 | 1.52 | O=C1N[C@@H]([C@@H](Cc2ccccc2)C(=O)O)CO1 |

Reference: ChEMBL document CHEMBL1130784, “Irreversible inhibition of zinc-containing protease by oxazolidinone derivatives. Novel inactivation chemistry” (Bioorg Med Chem Lett, 1998)
